Data: ChEMBL document CHEMBL1201862, “PubChem BioAssay data set” (2004)
Each block holds one compound with its values, some of them ahead of it. Activity calls are given as the source filed them.

What was measured:
Caspase-3 = biological target: T1, Caspase-3 (Homo sapiens, UniProt P42574); type: functional;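 further: Dose-response selectivity test against caspase-3 for candidate inhibitors of sentrin-specific proteases (SENPs)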
T1 sequence (P42574 whole entry): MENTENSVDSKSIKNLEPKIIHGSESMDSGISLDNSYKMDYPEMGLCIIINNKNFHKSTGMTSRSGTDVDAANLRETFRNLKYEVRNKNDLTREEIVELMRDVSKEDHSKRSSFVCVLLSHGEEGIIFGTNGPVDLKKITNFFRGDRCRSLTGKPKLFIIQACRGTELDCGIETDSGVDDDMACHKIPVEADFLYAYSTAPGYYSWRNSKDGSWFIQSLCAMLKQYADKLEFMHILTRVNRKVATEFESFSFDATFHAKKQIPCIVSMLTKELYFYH

[1] = biological target: T2, Sentrin-specific protease 7 (Homo sapiens, UniProt Q9BQF6); type: functional;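 further: Luminescence-based dose-response confirmation of ultra-high-throughput screening hits, measuring inhibition of SENP7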
T2 sequence (Q9BQF6 whole entry): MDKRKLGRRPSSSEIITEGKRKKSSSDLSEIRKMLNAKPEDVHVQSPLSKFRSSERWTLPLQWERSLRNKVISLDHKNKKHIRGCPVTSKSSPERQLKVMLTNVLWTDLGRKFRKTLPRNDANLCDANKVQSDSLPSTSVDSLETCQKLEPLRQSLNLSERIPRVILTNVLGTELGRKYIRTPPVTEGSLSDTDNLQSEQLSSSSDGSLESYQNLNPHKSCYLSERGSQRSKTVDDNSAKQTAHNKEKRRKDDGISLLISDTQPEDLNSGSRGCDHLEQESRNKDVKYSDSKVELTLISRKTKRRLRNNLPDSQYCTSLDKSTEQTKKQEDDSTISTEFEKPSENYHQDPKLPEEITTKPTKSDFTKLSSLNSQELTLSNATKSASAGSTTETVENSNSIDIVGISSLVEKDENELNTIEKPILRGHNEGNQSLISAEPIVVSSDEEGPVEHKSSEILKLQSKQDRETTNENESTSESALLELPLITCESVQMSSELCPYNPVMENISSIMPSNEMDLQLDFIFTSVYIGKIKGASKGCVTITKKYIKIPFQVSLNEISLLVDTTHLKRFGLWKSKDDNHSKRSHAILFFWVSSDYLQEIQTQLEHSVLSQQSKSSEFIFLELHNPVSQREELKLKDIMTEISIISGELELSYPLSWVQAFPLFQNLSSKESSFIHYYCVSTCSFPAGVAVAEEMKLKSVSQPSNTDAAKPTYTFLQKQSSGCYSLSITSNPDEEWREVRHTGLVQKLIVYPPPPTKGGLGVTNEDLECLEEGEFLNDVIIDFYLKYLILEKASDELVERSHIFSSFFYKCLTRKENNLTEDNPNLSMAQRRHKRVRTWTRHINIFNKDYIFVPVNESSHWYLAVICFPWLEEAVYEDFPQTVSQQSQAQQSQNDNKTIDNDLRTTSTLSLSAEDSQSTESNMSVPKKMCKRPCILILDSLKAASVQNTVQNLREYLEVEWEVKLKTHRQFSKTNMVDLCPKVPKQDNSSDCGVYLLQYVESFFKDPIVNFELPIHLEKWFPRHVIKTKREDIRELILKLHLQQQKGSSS

[2] = biological target: T3, Sentrin-specific protease 6 (Homo sapiens, UniProt Q9GZR1); type: functional;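 further: Luminescence-based dose-response confirmatory assay of SENP6 inhibition, following up an ultra-high-throughput screen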
T3 sequence (Q9GZR1 whole entry): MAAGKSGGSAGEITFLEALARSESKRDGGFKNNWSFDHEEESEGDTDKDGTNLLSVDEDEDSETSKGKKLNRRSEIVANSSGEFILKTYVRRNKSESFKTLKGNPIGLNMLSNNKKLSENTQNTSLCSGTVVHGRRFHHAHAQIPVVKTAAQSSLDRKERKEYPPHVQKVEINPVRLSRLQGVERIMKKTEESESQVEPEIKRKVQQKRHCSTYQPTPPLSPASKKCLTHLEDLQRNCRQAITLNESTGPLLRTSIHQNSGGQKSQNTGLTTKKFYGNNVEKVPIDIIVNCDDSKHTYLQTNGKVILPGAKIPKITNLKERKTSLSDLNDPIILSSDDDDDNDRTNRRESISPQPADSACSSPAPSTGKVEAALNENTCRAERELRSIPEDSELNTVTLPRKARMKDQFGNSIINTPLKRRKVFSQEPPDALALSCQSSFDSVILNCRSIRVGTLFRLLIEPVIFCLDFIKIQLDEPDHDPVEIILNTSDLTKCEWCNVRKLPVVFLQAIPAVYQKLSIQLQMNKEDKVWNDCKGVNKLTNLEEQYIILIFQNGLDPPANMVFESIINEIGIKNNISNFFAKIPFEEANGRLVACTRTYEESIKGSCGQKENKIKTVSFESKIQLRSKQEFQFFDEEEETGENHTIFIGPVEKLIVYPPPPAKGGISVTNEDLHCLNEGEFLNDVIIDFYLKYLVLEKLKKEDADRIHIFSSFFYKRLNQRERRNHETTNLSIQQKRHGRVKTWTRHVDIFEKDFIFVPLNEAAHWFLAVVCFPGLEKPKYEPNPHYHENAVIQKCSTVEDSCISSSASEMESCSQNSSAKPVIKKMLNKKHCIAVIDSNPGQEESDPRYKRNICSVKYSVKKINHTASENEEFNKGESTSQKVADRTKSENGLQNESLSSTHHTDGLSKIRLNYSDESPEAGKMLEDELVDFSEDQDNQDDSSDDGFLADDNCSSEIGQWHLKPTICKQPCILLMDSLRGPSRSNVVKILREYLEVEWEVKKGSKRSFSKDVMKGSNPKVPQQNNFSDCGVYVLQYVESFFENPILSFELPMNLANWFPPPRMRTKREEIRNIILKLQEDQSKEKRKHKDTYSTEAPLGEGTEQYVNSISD

[3] = biological target: T4, Sentrin-specific protease 8 (Homo sapiens, UniProt Q96LD8); type: functional
T4 sequence (Q96LD8 whole entry): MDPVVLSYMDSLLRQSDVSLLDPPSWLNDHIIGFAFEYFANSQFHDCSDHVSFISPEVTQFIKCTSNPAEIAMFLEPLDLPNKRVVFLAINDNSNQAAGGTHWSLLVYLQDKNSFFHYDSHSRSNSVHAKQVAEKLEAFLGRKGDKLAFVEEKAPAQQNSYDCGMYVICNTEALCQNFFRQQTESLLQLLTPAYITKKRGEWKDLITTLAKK

[4] = biological target: T4, Sentrin-specific protease 8; type: functional; remark: listed apart in the source
[5] = biological target: T4, Sentrin-specific protease 8; type: functional; remark: listed apart in the source
Caspase-6 = biological target: T5, Caspase-6 (Homo sapiens, UniProt P55212); assay: inhibition of CASP6 peptide cleavage – biochemical, VEID-R110 fluorescence, cherry-pick, dose response (AID 720632)
T5 sequence (P55212 whole entry): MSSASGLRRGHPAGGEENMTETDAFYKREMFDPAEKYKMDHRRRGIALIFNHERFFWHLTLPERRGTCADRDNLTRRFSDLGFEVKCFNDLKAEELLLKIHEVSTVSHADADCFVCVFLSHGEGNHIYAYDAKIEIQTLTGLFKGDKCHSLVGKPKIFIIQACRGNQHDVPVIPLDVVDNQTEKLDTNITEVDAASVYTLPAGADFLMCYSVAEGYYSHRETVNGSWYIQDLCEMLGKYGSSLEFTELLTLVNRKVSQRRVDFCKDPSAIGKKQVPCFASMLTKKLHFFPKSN

[6] = Trypanosoma cruzi growth suppression in host cells – NIH3T3 host cells, beta-gal luminescence, confirmation (AID 2044); type: functional, cell-based;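 further: intracellular parasites grown in NIH/3T3 mouse fibroblasts as host cells; luminescent beta-galactosidase reporter signal from transgenic T. cruzi replicating inside host cells; inhibitors lower the luminescence signal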
[7] = NIH3T3 cell viability loss – ATP luminescence, mouse fibroblasts, counter-screen, dose response (AID 2010); type: functional, cell-based;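 further: cells exposed to compound for about 90 hours before reading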
[8] = biological target: T6, Probable nicotinate-nucleotide adenylyltransferase (Staphylococcus aureus (strain N315), UniProt P65502); type: functional, Staphylococcus aureus subsp. aureus N315;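 on IC50 Mean: confirmatory dose-response retesting of NadD inhibitor hits first found in an ultra-high-throughput screen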
[9] = biological target: T6, Probable nicotinate-nucleotide adenylyltransferase; type: functional, Staphylococcus aureus subsp. aureus N315; conditions: read-out: IC50_Mean
[10] = biological target: T7, Sentrin-specific protease 1 (Homo sapiens, UniProt Q9P0U3); assay: SENP1 catalytic domain blockers, concentration series – biochemical, kinetic FRET, dose response (AID 651697); type: functional; conditions: read-out: IC50_Mean
T7 sequence (Q9P0U3 whole entry): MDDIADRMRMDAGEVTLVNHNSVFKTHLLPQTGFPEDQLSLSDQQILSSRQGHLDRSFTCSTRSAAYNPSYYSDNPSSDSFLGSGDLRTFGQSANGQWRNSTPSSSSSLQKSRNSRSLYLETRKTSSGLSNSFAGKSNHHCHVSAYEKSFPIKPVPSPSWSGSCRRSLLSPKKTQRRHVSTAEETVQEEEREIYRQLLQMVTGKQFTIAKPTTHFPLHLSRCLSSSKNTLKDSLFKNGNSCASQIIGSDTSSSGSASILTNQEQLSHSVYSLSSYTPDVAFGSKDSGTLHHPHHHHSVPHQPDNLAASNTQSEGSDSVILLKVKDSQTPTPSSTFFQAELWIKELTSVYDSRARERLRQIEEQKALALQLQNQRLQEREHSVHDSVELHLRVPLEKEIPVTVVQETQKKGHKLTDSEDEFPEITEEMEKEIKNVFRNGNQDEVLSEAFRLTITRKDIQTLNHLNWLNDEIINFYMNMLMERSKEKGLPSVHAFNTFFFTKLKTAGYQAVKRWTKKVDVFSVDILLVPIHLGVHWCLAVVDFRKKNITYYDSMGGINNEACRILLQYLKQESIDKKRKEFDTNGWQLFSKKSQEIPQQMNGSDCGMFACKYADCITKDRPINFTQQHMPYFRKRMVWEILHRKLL

[11] = biological target: T7, Sentrin-specific protease 1; assay: Dose response confirmation of small molecule inhibitors of the catalytic domain of the SUMO protease, SENP1 in a FRET assay.; type: functional; conditions: read-out: IC50_Mean
Albumin = Albumin (Bos taurus, UniProt P02769); assay: Counterscreen for inhibitors of T-cell receptor (TCR)-CD3 interaction: Fluorescence-based biochemical high throughput dose response assay to identify inhibitors of T-cell receptor (TCR)-CD3 interaction using a TAMRA-labeled BSA probe.; type: functional
Albumin, sequence (P02769 whole entry, the tested form may be a part): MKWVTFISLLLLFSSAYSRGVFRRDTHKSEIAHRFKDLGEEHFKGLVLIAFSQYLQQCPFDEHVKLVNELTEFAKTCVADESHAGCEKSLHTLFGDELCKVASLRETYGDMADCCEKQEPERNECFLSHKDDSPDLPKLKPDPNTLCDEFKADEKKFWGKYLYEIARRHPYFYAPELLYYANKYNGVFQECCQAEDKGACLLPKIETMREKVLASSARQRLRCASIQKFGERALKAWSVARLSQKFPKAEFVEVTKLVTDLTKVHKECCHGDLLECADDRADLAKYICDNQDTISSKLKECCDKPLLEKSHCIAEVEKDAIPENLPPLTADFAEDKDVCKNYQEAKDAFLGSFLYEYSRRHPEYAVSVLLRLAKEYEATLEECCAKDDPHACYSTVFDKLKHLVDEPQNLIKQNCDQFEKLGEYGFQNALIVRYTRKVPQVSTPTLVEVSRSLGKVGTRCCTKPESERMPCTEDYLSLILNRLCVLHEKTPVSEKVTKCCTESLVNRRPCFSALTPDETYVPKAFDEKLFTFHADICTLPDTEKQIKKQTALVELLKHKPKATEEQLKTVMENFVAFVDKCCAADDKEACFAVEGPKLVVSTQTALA

[12] = biological target: T8, RNA-binding protein pos-1 (Caenorhabditis elegans, UniProt G5EF15); assay: disruptors of C. elegans POS-1 RNA interaction – biochemical, fluorescence polarization, dose response (AID 1964);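 further: purified POS-1 fused to maltose binding protein made in E. coli; potency of compounds blocking POS-1 binding to fluorescent RNA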
T8 sequence (G5EF15 whole entry): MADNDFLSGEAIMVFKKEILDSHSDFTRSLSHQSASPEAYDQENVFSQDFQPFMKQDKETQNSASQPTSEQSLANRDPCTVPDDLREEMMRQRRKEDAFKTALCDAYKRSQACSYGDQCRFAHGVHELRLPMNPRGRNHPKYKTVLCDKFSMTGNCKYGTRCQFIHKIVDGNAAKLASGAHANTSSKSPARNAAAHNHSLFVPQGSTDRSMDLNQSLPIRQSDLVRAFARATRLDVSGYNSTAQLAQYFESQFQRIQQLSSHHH

cells [13] = type: functional, cell-based
[14] = biological target: T9, Zinc finger protein mex-5 (Caenorhabditis elegans, UniProt Q9XUB2); assay: potency of MEX-5 RNA-binding blockers – biochemical, C. elegans, fluorescence polarization, dose response (AID 1960)
T9 sequence (Q9XUB2 whole entry): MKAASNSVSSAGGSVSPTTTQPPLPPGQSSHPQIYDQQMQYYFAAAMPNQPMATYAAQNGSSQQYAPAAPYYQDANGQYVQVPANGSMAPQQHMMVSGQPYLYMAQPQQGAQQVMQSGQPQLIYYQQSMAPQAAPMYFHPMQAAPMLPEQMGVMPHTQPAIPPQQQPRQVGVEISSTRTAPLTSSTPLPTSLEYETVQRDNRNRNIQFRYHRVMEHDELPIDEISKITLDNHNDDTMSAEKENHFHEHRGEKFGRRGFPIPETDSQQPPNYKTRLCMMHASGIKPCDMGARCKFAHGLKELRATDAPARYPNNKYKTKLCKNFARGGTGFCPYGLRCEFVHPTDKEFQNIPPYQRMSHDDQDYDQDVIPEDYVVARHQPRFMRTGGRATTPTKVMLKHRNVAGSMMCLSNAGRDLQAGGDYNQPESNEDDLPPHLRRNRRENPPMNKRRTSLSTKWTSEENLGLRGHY

Large T antigen = Large T antigen (Simian virus 40, UniProt P03070); type: functional, Betapolyomavirus macacae;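 further: Confirmatory-stage PubChem screen for compounds that inhibit SV40 T antigen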
Large T antigen, sequence (P03070 whole entry): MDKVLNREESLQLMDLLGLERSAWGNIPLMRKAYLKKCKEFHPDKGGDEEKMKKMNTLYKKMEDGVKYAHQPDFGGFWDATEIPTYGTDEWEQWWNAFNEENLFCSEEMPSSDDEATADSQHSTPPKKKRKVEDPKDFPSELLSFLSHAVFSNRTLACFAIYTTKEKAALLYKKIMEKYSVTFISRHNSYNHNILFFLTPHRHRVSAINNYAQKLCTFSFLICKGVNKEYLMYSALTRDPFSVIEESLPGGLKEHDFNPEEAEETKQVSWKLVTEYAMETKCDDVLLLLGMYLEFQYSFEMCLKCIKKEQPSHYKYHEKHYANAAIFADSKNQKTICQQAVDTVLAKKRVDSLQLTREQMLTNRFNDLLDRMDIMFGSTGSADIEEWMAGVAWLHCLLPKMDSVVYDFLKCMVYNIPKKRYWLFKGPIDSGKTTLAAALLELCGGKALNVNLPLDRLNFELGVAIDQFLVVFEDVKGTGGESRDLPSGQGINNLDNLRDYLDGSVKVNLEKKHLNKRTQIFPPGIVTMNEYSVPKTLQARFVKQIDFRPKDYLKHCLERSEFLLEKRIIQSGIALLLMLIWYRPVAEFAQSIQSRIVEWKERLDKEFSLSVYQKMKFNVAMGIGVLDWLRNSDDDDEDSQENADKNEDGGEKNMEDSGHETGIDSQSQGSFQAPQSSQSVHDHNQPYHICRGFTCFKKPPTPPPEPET

cells [15] = type: functional, cell-based; remark: listed apart in the source
[16] = biological target: FAD-linked sulfhydryl oxidase ALR (Homo sapiens, UniProt P55789); assay: ALR-catalysed DTT oxidation blockers – biochemical, H2O2 detection, luminescence, cherry-pick, dose response (AID 493248)
FAD-linked sulfhydryl oxidase ALR, sequence (P55789 whole entry): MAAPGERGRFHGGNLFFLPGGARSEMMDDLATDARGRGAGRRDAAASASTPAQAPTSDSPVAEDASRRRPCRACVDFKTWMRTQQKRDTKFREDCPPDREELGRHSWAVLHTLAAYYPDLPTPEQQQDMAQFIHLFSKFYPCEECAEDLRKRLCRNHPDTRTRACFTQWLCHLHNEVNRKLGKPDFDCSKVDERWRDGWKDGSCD

[17] = reduction of Shn3 3'UTR-driven luciferase in osteoblasts – cell-based, Clone20 osteoblasts, firefly luciferase, cherry-picked, dose response (AID 624132); type: functional;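 further: firefly luciferase luminescence from reporter carrying the Shn3 3'UTR in osteoblasts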
[18] = non-specific 3'UTR reporter inhibition in Clone20-Shn3RL – cell-based, Renilla luciferase, cherry-picked, counter-screen for Shn3 inhibitor project, dose response (AID 624133); type: functional
[19] = HGIII-sPLA2 enzyme inhibition potency – biochemical, QFRET, IC50, dose response (AID 743457);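 further: green fluorescence rise as the enzyme cleaves BODIPY PC-A2 in liposomes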

IC50 (Caspase-3): 3.55 µM (active)
IC50 [1]: 23.8 µM (active)
IC50 [2]: 8.06 µM (active)
AC50 (Caspase-6): 27.4 µM (active)
Structure (SMILES): Cc1ccccc1N1C(=O)Cc2ccccc2C1=O
IC50 [3]: 45.7 µM (active)
IC50 [4]: > 100 µM (inactive)
IC50 [5]: 3.22 µM (active)

Structure (SMILES): Cc1c(C(=O)N2CC3(CC(c4cccc(NC(=O)CC(c5ccccc5)c5ccccc5)c4)=NO3)C[C@@H]2C(N)=O)cc([N+](=O)[O-])cc1[N+](=O)[O-] (some centres undefined)
EC50 [6]: 1.05 µM (active)
EC50 [7]: > 60 µM (not active)
IC50 [8]: 16.8 µM (active)
IC50 [9]: 38.4 µM (active)

IC50 [10]: 40.8 µM (inactive)
IC50 [11]: 19.6 µM (active)
Structure (SMILES): COc1ccc(Nc2cc(C)nc3ncnn23)cc1Cl

IC50 (Albumin): > 94.1 µM (inactive)
Structure (SMILES): Cc1ccccc1C(=O)NNC(=S)NC(=O)c1cccnc1

Structure (SMILES): Cc1ccn2cc(-c3ccc(O)c(O)c3)nc2c1
EC50 [12]: 38 µM (active)
EC50 (cells [13]): > 350 µM (not active)
EC50 [14]: 6.88 µM (active)
IC50 (Large T antigen): 12.9 µM (active)
EC50 (cells [15]): 6.58 µM (active)
AC50 [16]: 0.558 µM (active)
AC50 [17]: 2.44 µM (active)
AC50 [18]: 13 µM (active)
IC50 (Albumin): > 94.1 µM (inactive)

IC50 (Albumin): > 94.1 µM (inactive)
IC50 [19]: > 122 µM (inactive)
Structure (SMILES): O=C(NNC(=O)c1ccc2ccccc2c1O)Nc1ccc(F)cc1

IC50 [8]: 9.8 µM (active)
IC50 [9]: 38.2 µM (active)
Structure (SMILES): O=C(Nc1ccc(S(=O)(=O)Nc2nccs2)cc1)c1cccc(N2C(=O)c3ccccc3C2=O)c1

IC50 [10]: 12.5 µM (active)
IC50 [11]: 2.89 µM (active)
Structure (SMILES): O=C(Nc1cc2c(cc1Cl)-c1ccc([N+](=O)[O-])cc1C2=NO)C(F)(F)F
